In US12559529B2, “NPY2 receptor agonists” (Boehringer Ingelheim International GmbH, priority 2019, dated 2026) one finds Ki data, which are given here for 5 molecules.

Structures are written as SMILES. *1 amine or outer side, *2 acyl side, *3 side chain or, on linkers, in order; H or OH if unused. Where a SMILES comes first, the peptide text is derived from it. Side-chain parts run from the residue outwards. The star is where a group is joined. C18 diacid = O=C(O)CCCCCCCCCCCCCCCCC(=O)*; γGlu = O=C(O)[C@H](CCC(=O)[*:2])N[*:1]; Isovaleryl = CC(C)CC(=O)*; AEEA = NCCOCCOCC(=O)O

This assay concerns the target T1, Human Neuropeptide Y2 Receptor (Homo sapiens, UniProt P49146).
T1 construct: purchased CHEMICON HTS066M
T1 sequence (P49146 1-381): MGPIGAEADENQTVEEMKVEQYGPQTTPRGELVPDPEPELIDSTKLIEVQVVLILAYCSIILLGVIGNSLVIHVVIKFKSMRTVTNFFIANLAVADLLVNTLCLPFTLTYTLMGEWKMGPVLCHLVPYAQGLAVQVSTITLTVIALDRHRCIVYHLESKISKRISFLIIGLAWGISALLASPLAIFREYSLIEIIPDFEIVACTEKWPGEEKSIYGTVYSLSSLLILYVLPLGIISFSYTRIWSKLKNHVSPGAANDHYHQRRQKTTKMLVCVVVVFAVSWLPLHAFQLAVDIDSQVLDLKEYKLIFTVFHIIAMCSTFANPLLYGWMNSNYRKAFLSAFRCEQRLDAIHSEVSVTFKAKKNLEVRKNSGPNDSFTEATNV
The assay can be described thus: Radioligand binding competition assay (RLB). The conditions noted are these: Table 3; human 125I-PYY (1-36) 0.02 nM, Y2 receptor membranes; read-out: Ki. A digest of the protocol: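 Competition binding at commercial human NPY Y2 membrane preparations, 0.5 μg protein per well, 2 h incubation at room temperature. Bound and free ligand were separated on GF/C filters and counted; IC50 was fitted by nonlinear regression.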
With `CC(C)CC(=O)N[C@@H](C)C(=O)N1CCC[C@H]1C(=O)N[C@@H](CCC(=O)O)C(=O)N[C@@H](CCCCNC(=O)COCCOCCNC(=O)COCCOCCNC(=O)CC[C@H](NC(=O)CCCCCCCCCCCCCCCCC(=O)O)C(=O)O)C(=O)N1CCC[C@H]1C(=O)N[C@@H](CCC(=O)O)C(=O)N[C@@H](CCC(=O)O)C(=O)N[C@@H](CC(=O)O)C(=O)N[C@H](C(=O)N[C@@H](CO)C(=O)N1CCC[C@H]1C(=O)N[C@@H](CCC(=O)O)C(=O)N[C@@H](CCC(=O)O)C(=O)N[C@@H](CC(C)C)C(=O)N[C@@H](CCC(N)=O)C(=O)N[C@@H](CCCNC(=N)N)C(=O)N[C@@H](Cc1ccc(O)cc1)C(=O)N[C@@H](Cc1ccc(O)cc1)C(=O)N[C@H](C(=O)N[C@@H](CCC(=O)O)C(=O)N[C@@H](CC(C)C)C(=O)N[C@@H](CCCNC(=N)N)C(=O)N[C@@H](Cc1c[nH]cn1)C(=O)N[C@@H](Cc1ccc(O)cc1)C(=O)N[C@@H](Cc1ccc(O)cc1)C(=O)N[C@@H](CC(N)=O)C(=O)N[C@@H](Cc1c[nH]c2ccccc12)C(=O)N[C@@H](CC(C)C)C(=O)N[C@H](C(=O)N[C@@H](CCCNC(=N)N)C(=O)N[C@@H](CCC(N)=O)C(=O)N[C@@H](CCCNC(=N)N)C(=O)N[C@@H](Cc1ccc(O)cc1)C(N)=O)[C@@H](C)O)C(C)C)[C@@H](C)O` [Compound 28, N{alpha-4}-(3-methylbutanoyl)-N{epsilon-7}-[2-(2-{2-[2-(2-{2-[(4S)-4-carboxy-4-(17-carboxyheptadecanamido)butanamido]ethoxy}ethoxy)acetamido]ethoxy}ethoxy)acetamido]-[4A,7K,9E,12T,18Q,22V,23E,28Y,30W,31L]hPYY (4-36)], the Ki was found to be 6.03 nM.
To `CC[C@H](C)[C@H](NC(=O)[C@H](CCC(=O)O)NC(=O)[C@@H](NC(=O)[C@H](Cc1ccc(O)cc1)NC(=O)[C@H](Cc1ccc(O)cc1)NC(=O)[C@H](CCCNC(=N)N)NC(=O)[C@H](CCC(N)=O)NC(=O)[C@H](CC(C)C)NC(=O)[C@H](CCC(=O)O)NC(=O)[C@H](CCC(=O)O)NC(=O)[C@@H]1CCCN1C(=O)[C@H](CO)NC(=O)[C@H](C)NC(=O)[C@H](CC(=O)O)NC(=O)[C@H](CCC(=O)O)NC(=O)[C@H](CCC(=O)O)NC(=O)[C@@H]1CCCN1C(=O)[C@H](CCCCNC(=O)COCCOCCNC(=O)COCCOCCNC(=O)CC[C@H](NC(=O)CCCCCCCCCCCCCCCCC(=O)O)C(=O)O)NC(=O)[C@H](CCC(=O)O)NC(=O)[C@@H]1CCCN1C(=O)[C@H](C)NC(=O)CC(C)C)C(C)C)C(=O)N[C@@H](CCCNC(=N)N)C(=O)N[C@@H](Cc1c[nH]cn1)C(=O)N[C@@H](Cc1ccc(O)cc1)C(=O)N[C@@H](Cc1ccc(O)cc1)C(=O)N[C@@H](CC(N)=O)C(=O)N[C@@H](Cc1c[nH]c2ccccc12)C(=O)N[C@@H](CC(C)C)C(=O)N[C@H](C(=O)N[C@@H](CCCNC(=N)N)C(=O)N[C@@H](CCC(N)=O)C(=O)N[C@@H](CCCNC(=N)N)C(=O)N[C@@H](Cc1ccc(O)cc1)C(N)=O)[C@@H](C)O` [Compound 65, N{alpha-4}-(3-methylbutanoyl)-N{epsilon-7}-[2-(2-{2-[2-(2-{2-[(4S)-4-carboxy-4-(17-carboxyheptadecanamido)butanamido]ethoxy}ethoxy)acetamido]ethoxy}ethoxy)acetamido]-[4A,7K,9E,18Q,22V,23E,24I,28Y,30W,31L]hPYY (4-36)] belongs 1.02 nM; to `CC(C)CC(=O)N[C@@H](C)C(=O)N1CCC[C@H]1C(=O)N[C@@H](CCC(=O)O)C(=O)N[C@@H](CCCCNC(=O)COCCOCCNC(=O)COCCOCCNC(=O)CC[C@H](NC(=O)CCCCCCCCCCCCCCCCC(=O)O)C(=O)O)C(=O)N1CCC[C@H]1C(=O)N[C@@H](CCC(=O)O)C(=O)N[C@@H](CCC(=O)O)C(=O)N[C@@H](CCC(=O)O)C(=O)N[C@@H](C)C(=O)N[C@@H](CO)C(=O)N1CCC[C@H]1C(=O)N[C@@H](CCC(=O)O)C(=O)N[C@@H](CCC(=O)O)C(=O)N[C@@H](CC(C)C)C(=O)N[C@@H](CCC(N)=O)C(=O)N[C@@H](C)C(=O)N[C@@H](Cc1ccc(O)cc1)C(=O)N[C@@H](Cc1ccc(O)cc1)C(=O)N[C@H](C(=O)N[C@@H](CO)C(=O)N[C@@H](CC(C)C)C(=O)N[C@@H](CCCNC(=N)N)C(=O)N[C@@H](Cc1c[nH]cn1)C(=O)N[C@@H](Cc1ccc(O)cc1)C(=O)N[C@@H](Cc1ccc(O)cc1)C(=O)N[C@@H](CC(N)=O)C(=O)N[C@@H](Cc1c[nH]c2ccccc12)C(=O)N[C@@H](CC(C)C)C(=O)N[C@H](C(=O)N[C@@H](CCCNC(=N)N)C(=O)N[C@@H](CCC(N)=O)C(=O)N[C@@H](CCCNC(=N)N)C(=O)N[C@@H](Cc1ccc(O)cc1)C(N)=O)[C@@H](C)O)C(C)C` [Compound 68, N{alpha-4}-(3-methylbutanoyl)-N{epsilon-7}-[2-(2-{2-[2-(2-{2-[(4S)-4-carboxy-4-(17-carboxyheptadecanamido)butanamido]ethoxy}ethoxy)acetamido]ethoxy}ethoxy)acetamido]-[4A,7K,9E,11E,18Q,19A,22V,28Y,30W,31L]hPYY (4-36)] (Isovaleryl-APEK([AEEA-AEEA-γGlu-C18 diacid])PEEEASPEELQAYYVSLRHYYNWLTRQRY-NH2), 8.47 nM; to `CC[C@H](C)[C@H](NC(=O)[C@H](CCC(=O)O)NC(=O)[C@H](CCC(=O)O)NC(=O)[C@@H]1CCCN1C(=O)[C@H](CO)NC(=O)[C@H](C)NC(=O)[C@H](CC(=O)O)NC(=O)[C@H](CCC(=O)O)NC(=O)[C@H](CCC(=O)O)NC(=O)[C@@H]1CCCN1C(=O)[C@H](CCCCNC(=O)COCCOCCNC(=O)COCCOCCNC(=O)CC[C@H](NC(=O)CCCCCCCCCCCCCCCCC(=O)O)C(=O)O)NC(=O)[C@H](CCC(=O)O)NC(=O)[C@@H]1CCCN1C(=O)[C@H](C)NC(=O)CC(C)C)C(=O)N[C@@H](CCC(N)=O)C(=O)N[C@@H](CCCNC(=N)N)C(=O)N[C@@H](Cc1ccc(O)cc1)C(=O)N[C@@H](CCC(=O)O)C(=O)N[C@H](C(=O)N[C@@H](CO)C(=O)N[C@@H](CC(C)C)C(=O)N[C@@H](CCCNC(=N)N)C(=O)N[C@@H](Cc1c[nH]cn1)C(=O)N[C@@H](Cc1ccc(O)cc1)C(=O)N[C@@H](Cc1ccc(O)cc1)C(=O)N[C@@H](CC(N)=O)C(=O)N[C@@H](Cc1c[nH]c2ccccc12)C(=O)N[C@@H](CC(C)C)C(=O)N[C@H](C(=O)N[C@@H](CCCNC(=N)N)C(=O)N[C@@H](CCC(N)=O)C(=O)N[C@@H](CCCNC(=N)N)C(=O)N[C@@H](Cc1ccc(O)cc1)C(N)=O)[C@@H](C)O)C(C)C` [Compound 15, N{alpha-4}-(3-methylbutanoyl)-N{epsilon-7}-[2-(2-{2-[2-(2-{2-[(4S)-4-carboxy-4-(17-carboxyheptadecanamido)butanamido]ethoxy}ethoxy)acetamido]ethoxy}ethoxy)acetamido]-[4A,7K,9E,17I,18Q,21E,22V,28Y,30W,31L]hPYY (4-36)], 2.89 nM.
Consider `CC(C)CC(=O)N[C@@H](C)C(=O)N1CCC[C@H]1C(=O)N[C@@H](CCC(=O)O)C(=O)N[C@@H](CCCCNC(=O)COCCOCCNC(=O)COCCOCCNC(=O)CC[C@H](NC(=O)CCCCCCCCCCCCCCCCC(=O)O)C(=O)O)C(=O)N1CCC[C@H]1C(=O)N[C@@H](CCC(=O)O)C(=O)N[C@@H](CCC(=O)O)C(=O)N[C@@H](CC(=O)O)C(=O)N[C@@H](C)C(=O)N[C@@H](CO)C(=O)N1CCC[C@H]1C(=O)N[C@@H](CCC(=O)O)C(=O)N[C@@H](CCC(=O)O)C(=O)N[C@@H](CC(C)C)C(=O)N[C@@H](CCC(N)=O)C(=O)N[C@@H](CCCNC(=N)N)C(=O)N[C@@H](Cc1ccc(O)cc1)C(=O)N[C@@H](Cc1ccc(O)cc1)C(=O)N[C@H](C(=O)N[C@@H](CO)C(=O)N[C@@H](C)C(=O)N[C@@H](CCCNC(=N)N)C(=O)N[C@@H](Cc1c[nH]cn1)C(=O)N[C@@H](Cc1ccc(O)cc1)C(=O)N[C@@H](Cc1ccc(O)cc1)C(=O)N[C@@H](CC(N)=O)C(=O)N[C@@H](Cc1c[nH]c2ccccc12)C(=O)N[C@@H](CC(C)C)C(=O)N[C@H](C(=O)N[C@@H](CCCNC(=N)N)C(=O)N[C@@H](CCC(N)=O)C(=O)N[C@@H](CCCNC(=N)N)C(=O)N[C@@H](Cc1ccc(O)cc1)C(N)=O)[C@@H](C)O)C(C)C` [Compound 229, N{alpha-4}-(3-methylbutanoyl)-N{epsilon-7}-[2-(2-{2-[2-(2-{2-[(4S)-4-carboxy-4-(17-carboxyheptadecanamido)butanamido]ethoxy}ethoxy)acetamido]ethoxy}ethoxy)acetamido]-[4A,7K,9E,18Q,22V,24A,28Y,30W,31L]hPYY (4-36)], for which the Ki worked out at 2.84 nM.

The Ki is the dissociation constant of the complex between target and ligand, obtained from inhibition or displacement.
